The target in assay [1] is T1, Histone-lysine N-methyltransferase NSD2 (Homo sapiens, UniProt O96028).
T1 sequence (O96028 whole entry): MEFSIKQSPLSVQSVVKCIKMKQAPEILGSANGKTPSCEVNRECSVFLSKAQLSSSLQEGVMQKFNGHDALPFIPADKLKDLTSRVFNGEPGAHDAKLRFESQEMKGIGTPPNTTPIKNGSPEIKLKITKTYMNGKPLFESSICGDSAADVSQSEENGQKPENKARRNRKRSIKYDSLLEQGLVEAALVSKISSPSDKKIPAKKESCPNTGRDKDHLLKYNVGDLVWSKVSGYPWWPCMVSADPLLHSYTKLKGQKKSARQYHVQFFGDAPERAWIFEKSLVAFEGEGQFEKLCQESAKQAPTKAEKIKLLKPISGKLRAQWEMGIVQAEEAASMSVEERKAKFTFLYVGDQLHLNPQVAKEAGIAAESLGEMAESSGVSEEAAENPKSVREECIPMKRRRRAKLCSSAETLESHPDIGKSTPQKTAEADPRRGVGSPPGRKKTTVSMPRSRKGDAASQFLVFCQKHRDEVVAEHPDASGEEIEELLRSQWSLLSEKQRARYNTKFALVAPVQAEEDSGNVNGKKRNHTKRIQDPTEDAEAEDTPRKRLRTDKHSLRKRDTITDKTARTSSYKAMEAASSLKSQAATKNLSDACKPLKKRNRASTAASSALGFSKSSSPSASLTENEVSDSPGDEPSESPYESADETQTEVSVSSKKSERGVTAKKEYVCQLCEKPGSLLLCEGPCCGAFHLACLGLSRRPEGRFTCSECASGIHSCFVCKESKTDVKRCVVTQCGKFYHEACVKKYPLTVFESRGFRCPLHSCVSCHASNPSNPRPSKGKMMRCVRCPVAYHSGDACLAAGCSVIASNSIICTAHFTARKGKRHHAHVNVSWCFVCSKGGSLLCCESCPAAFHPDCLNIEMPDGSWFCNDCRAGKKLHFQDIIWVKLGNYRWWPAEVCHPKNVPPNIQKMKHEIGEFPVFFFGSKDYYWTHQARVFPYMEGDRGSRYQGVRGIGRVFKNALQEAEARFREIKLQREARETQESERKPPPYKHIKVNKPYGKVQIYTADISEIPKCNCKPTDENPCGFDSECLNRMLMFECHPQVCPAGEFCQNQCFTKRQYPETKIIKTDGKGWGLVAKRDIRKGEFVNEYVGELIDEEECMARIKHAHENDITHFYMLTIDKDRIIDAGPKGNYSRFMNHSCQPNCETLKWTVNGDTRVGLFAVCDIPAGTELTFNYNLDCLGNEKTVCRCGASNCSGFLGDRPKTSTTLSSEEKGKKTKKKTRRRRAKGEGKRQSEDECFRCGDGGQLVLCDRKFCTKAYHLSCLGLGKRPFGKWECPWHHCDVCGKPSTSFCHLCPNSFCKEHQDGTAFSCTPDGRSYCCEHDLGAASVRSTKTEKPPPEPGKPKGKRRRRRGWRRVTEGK
The assay is classed as biochemical.

In assay [2] the target is Maternal embryonic leucine zipper kinase (Homo sapiens, UniProt Q14680). Type of assay: functional.
Sequence of Maternal embryonic leucine zipper kinase (Q14680 whole entry): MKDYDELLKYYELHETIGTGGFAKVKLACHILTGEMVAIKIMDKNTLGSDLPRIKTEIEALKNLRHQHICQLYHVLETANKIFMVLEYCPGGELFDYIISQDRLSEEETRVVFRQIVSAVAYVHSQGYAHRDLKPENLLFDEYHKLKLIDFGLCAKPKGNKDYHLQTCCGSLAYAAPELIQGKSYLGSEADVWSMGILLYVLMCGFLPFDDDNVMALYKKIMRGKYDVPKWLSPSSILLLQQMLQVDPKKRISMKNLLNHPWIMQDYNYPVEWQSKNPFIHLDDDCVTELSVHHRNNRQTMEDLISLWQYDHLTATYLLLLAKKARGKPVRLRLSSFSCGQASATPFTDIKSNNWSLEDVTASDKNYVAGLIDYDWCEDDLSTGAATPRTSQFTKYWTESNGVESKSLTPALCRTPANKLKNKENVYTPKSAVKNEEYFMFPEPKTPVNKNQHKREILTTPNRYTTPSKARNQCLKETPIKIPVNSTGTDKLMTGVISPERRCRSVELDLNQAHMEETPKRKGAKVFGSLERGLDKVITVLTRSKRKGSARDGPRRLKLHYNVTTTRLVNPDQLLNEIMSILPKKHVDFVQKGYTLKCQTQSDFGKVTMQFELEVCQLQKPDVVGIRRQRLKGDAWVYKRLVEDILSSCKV
Assay [3] deals with Cyclin-dependent kinase 1 (Homo sapiens, UniProt P06493). Type of assay: functional.
Sequence of Cyclin-dependent kinase 1 (P06493 whole entry): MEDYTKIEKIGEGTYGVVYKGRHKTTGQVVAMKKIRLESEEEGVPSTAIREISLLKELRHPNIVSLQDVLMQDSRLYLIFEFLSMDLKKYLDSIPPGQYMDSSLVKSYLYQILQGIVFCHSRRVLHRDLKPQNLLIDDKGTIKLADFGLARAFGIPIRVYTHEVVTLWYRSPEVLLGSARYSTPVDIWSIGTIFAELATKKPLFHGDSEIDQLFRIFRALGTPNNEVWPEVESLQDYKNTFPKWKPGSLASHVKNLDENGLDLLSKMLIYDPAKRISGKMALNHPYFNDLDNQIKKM
The target of the next assay is SRSF protein kinase 1 (Homo sapiens, UniProt Q96SB4). Type of assay: functional.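 Note: measured as one member of a kinome-wide kinase profiling panel.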
Sequence of SRSF protein kinase 1 (Q96SB4 whole entry): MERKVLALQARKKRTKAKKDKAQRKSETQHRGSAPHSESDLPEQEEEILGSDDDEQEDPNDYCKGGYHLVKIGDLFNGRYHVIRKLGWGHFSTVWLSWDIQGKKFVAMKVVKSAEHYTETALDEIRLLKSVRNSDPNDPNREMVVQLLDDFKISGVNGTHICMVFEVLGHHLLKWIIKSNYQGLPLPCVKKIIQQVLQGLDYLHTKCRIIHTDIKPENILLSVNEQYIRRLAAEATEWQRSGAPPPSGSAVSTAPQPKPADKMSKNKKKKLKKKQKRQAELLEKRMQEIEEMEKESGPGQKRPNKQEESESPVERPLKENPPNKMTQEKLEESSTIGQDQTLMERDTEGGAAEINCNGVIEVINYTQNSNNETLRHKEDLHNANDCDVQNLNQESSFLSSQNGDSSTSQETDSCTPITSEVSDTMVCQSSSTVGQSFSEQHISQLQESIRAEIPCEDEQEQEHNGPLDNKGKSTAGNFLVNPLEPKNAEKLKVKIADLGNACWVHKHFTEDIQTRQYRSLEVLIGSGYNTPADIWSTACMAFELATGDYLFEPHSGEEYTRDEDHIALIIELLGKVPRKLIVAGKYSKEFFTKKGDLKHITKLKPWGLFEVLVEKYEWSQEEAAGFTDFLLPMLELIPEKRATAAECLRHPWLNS
The target in assay [4] is Dual specificity tyrosine-phosphorylation-regulated kinase 1A (Homo sapiens, UniProt Q13627). The assay is classed as functional.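 Note: measured against DYRK1A as one member of a broad kinome profiling panel.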
Assay [5] concerns the target Tyrosine-protein kinase FRK (Homo sapiens, UniProt P42685). The assay is classed as functional.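 Note: FRK tested as one member of a kinome panel.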
Assay [6] concerns the target Casein kinase I isoform alpha (Homo sapiens, UniProt P48729). Type of assay: functional.
Assay [7] concerns the target Calcium/calmodulin-dependent protein kinase type II subunit alpha (Homo sapiens, UniProt Q9UQM7). Briefly: Navigating the Kinome. Panel member name: CAMK2A. Type of assay: functional.
Assay [8] has as its target Calcium/calmodulin-dependent protein kinase type II subunit beta (Homo sapiens, UniProt Q13554). The assay is classed as functional.
Assay [9] has as its target Tyrosine-protein kinase ITK/TSK (Homo sapiens, UniProt Q08881). Type of assay: functional.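 Note: affinity for ITK measured as one member of a broad kinase panel profiling binding across the kinome.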
Assay [10] has as its target Serine/threonine-protein kinase Chk2 (Homo sapiens, UniProt O96017). The assay is classed as functional.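 Note: CHEK2 entry within a kinome-wide screening panel.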
For assay [11], the target named is STE20-like serine/threonine-protein kinase (Homo sapiens, UniProt Q9H2G2). The assay is classed as functional.
Sequence of STE20-like serine/threonine-protein kinase (Q9H2G2 whole entry): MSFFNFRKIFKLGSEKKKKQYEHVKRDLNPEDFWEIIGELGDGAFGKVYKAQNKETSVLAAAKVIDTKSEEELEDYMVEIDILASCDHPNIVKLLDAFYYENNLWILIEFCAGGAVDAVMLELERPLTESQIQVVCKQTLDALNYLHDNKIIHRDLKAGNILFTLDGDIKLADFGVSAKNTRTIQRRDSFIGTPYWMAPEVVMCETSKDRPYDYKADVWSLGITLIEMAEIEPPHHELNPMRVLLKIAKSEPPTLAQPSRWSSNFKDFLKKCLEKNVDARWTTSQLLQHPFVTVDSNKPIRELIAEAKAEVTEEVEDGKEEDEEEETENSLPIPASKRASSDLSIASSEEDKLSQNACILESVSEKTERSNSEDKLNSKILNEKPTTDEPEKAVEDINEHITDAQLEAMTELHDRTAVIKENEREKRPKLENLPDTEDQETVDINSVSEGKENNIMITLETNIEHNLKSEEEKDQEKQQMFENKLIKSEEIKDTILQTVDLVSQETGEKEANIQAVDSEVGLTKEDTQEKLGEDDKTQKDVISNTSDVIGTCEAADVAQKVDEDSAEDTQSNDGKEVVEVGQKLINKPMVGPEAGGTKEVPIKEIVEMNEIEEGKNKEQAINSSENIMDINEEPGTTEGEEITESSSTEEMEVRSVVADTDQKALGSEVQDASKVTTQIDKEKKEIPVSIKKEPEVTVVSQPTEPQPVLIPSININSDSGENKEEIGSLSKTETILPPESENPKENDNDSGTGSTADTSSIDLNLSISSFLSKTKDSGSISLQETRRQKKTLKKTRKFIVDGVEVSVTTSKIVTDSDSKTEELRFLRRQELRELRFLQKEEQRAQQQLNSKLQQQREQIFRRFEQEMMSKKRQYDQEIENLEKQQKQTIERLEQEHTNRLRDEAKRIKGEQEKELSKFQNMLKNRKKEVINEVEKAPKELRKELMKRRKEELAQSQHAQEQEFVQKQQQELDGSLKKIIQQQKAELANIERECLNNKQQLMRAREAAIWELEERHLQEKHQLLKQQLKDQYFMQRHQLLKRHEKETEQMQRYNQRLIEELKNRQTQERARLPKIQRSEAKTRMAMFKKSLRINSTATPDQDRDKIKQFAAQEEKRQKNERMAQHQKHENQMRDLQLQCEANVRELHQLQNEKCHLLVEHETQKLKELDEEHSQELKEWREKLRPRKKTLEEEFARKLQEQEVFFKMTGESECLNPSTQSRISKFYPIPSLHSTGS
Assay [12] concerns the target Glycogen synthase kinase-3 alpha (Homo sapiens, UniProt P49840). The assay is classed as functional.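 Note: GSK3A result taken from a broad kinome-wide kinase panel.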
For assay [13], the target named is T2, Calpain-2 catalytic subunit (Sus scrofa, UniProt P43367).
T2 sequence (P43367 whole entry): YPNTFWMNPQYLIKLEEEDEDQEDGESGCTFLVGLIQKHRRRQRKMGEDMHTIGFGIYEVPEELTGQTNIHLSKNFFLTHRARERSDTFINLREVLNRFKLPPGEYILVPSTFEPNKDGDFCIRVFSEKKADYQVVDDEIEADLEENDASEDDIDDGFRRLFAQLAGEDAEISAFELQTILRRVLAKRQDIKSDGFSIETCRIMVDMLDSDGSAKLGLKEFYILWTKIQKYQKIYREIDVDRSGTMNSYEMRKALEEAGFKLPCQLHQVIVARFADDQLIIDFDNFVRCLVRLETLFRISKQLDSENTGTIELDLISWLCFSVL
Briefly: m-calpain protease blockers, concentration series – biochemical, fluorogenic peptide substrate, dose response (AID 1420). Type of assay: functional.

Assay [14] can be described thus: HPDE-C7 pancreatic duct cell viability loss – fluorescence, HTS (AID 430). Type of assay: functional, cell-based. The note with it: Homo sapiens.

“And” between values parts separate entries of the source, which are not always exact repeats. Equal values may be shown once. The source made the active and inactive calls.

Sequence of Casein kinase I isoform alpha (P48729 whole entry, canonical isoform): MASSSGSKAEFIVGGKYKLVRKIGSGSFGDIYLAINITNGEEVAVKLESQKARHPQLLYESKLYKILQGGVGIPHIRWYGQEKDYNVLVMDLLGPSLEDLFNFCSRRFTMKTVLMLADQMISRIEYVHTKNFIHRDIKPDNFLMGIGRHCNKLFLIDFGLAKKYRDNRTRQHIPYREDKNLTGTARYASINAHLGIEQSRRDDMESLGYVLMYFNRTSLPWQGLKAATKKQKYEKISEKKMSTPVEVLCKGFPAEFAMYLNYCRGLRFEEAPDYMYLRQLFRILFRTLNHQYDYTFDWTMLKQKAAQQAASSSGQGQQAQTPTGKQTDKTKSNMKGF
Sequence of Calcium/calmodulin-dependent protein kinase type II subunit beta (Q13554 whole entry): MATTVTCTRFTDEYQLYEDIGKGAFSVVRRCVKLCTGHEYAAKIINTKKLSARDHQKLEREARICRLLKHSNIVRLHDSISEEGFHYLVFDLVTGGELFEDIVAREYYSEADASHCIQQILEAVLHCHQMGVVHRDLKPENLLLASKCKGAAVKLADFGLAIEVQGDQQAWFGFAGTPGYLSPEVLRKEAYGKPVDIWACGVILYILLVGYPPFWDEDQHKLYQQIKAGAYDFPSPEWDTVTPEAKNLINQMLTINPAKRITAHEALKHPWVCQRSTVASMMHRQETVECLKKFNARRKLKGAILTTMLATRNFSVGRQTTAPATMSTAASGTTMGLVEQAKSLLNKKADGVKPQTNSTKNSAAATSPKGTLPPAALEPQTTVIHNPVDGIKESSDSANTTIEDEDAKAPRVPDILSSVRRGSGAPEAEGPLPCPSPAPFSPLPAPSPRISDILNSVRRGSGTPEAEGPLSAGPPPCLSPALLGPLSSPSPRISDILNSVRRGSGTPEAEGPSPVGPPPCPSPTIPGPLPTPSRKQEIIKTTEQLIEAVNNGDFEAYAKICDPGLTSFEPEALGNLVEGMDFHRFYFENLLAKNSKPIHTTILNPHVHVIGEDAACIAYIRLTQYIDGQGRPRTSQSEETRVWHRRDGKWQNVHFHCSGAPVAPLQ
Sequence of Glycogen synthase kinase-3 alpha (P49840 whole entry): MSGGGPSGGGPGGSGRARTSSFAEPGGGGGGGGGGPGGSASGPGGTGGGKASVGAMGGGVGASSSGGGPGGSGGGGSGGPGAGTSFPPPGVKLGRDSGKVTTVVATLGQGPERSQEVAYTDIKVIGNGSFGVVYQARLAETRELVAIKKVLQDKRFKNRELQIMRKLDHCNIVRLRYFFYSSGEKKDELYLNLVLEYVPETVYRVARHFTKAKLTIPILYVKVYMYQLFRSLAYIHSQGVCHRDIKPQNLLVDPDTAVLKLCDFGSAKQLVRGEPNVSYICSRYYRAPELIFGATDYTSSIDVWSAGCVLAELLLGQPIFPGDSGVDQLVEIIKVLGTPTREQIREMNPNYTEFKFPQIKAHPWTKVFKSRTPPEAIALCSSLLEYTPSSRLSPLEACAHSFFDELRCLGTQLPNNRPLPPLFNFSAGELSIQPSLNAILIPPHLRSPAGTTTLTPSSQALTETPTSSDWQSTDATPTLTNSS
Sequence of Serine/threonine-protein kinase Chk2 (O96017 whole entry): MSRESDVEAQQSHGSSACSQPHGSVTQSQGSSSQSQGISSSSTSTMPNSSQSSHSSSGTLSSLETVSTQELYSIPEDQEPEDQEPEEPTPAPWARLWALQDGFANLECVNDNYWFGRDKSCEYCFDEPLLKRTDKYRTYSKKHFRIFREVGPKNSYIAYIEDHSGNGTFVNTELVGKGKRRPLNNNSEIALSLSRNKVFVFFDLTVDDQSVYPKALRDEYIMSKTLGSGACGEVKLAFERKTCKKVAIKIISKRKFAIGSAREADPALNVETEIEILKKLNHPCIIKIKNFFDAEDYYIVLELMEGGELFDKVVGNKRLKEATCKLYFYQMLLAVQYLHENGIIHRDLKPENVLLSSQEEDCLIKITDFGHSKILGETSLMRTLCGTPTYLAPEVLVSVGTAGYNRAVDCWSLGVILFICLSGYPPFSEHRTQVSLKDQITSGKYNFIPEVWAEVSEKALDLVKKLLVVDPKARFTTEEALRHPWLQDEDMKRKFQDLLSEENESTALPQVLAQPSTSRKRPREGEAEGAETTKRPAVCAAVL

As usually defined, the AC50 is the concentration at which the activity in the assay is half-maximal. Take `O=C1C=C(N2CCOCC2)c2ccccc2C1=O`: the half-maximal activity concentration (AC50) in assay [1] was 1380 nM (active).

As a reminder, the Ki is a measure of affinity in units of concentration, obtained from inhibition or displacement. Turning to `N#Cc1ccc2[nH]c(O)c(-c3ccc(CN4CCOCC4)cn3)c2c1` [AZD-1080], the Ki in assay [2] was > 1580 nM (inactive); in [3], 2000 nM (active); on SRSF protein kinase 1, > 7940 nM (inactive); in assay [4], > 3160 nM (inactive); in [5] it was > 2510 nM (inactive); in [6], > 5010 nM (inactive). Further, the Ki in [7] is 6310 nM (active); in assay [8] it was > 7940 nM (inactive); in assay [9], > 1580 nM (inactive); in assay [10], > 1580 nM (inactive); in assay [11] it was > 10000 nM (inactive); in assay [12] it was > 2510 nM (inactive).

The term IC50 denotes the concentration that inhibits the measured activity by half. What is called EC50 is the midpoint of the concentration-response curve. In the case of `CCc1oc2ccccc2c1C(=O)c1cc(Br)c(O)c(Br)c1` [BENZBROMARONE], in assay [13], the IC50 is 7.97 µM (not active) and 4.88 µM (not active). Besides, the EC50 in [14] is 5710 nM (active).

The values are drawn from ChEMBL document CHEMBL1201862, “PubChem BioAssay data set” (2004).
